Earlier results on 1 compound are cited in patent US20100239681A1, “Controlled Release Particulates Containing Water-Insoluble Drug” (Biokey, Inc., priority 2009, published 2010).

For this data set the following is noted: at 25° C.

Take `Oc1ccc(C=Cc2cc(O)cc(O)c2)cc1` [resveratrol]: the water solubility was < 30 µg/mL.
